Results taken from patent US20090041751A1, “Sepsis Prevention Through Adenosine Receptor Modulation” (priority 2005, published 2009).
Entries after “also recorded” stand apart in the source; their conditions may differ.

Experiments:
[1] = test system: mice subjected to CLP; experiment: Survival after cecal ligation and puncture (CLP)-induced sepsis; assay type: in vivo, mouse; details: CD-1 mice
Text: For pharmacological studies with the selective A2A receptor antagonist 4-(2-[7-amino-2-(2-furyl)[1,2,4]triazolo[2,3-a][1,3,5]triazin-5-ylamino]ethyl)phenol(4-(2-[7-amino-2-(2-furyl[1,2,4]-triazolo[2,3-a[1,3,5]triazin-5-yl-aminoethyl)phenol (“ZM241385”); Tocris Cookson Inc.), male CD-1 mice were used that were purchased from Charles River Laboratories.
Polymicrobial sepsis was induced by subjecting mice to CLP, as we have described previously, with some modifications. Six-to-eight-week-old male A2a receptor KO or WT mice were anesthetized with Nembutal (80 mg/kg), given i.p. Under aseptic conditions, a 2-cm midline laparotomy was performed to allow exposure of the cecum with adjoining intestine. Approximately two-thirds of the cecum was tightly ligated with a 3.0 silk suture, and the ligated part of the cecum perforated twice (through and through) with a 20-gauge needle (Beckton Dickinson). The cecum was then gently squeezed to extrude a small amount of feces from the perforation sites. The cecum was then returned to the peritoneal cavity and the laparotomy closed in two layers with 4.0 silk sutures. Sham-operated animals underwent the same procedure without ligation or puncture of the cecum. The mice were resuscitated with 1 ml of physiological saline injected s.c., and returned to their cages with free access to food and water. One group of mice was monitored daily and survival recorded for 10 days. Another group of mice was re-anesthetized with Nembutal (80 mg/kg; i.p.) 16 or 48 hours after the operation, and blood, peritoneal lavage fluid, and various organs were harvested as described below.
The effect of pharmacological inactivation of A2A receptors in mice subjected to CLP was evaluated using CD-1 mice in a similar fashion to that described for the A2A receptor KO or WT mice. […]
Survival curves were analyzed using the two-tailed Fisher's exact test. […]

[2] = test system: IL-10, IL-6, MIP-2, IL-12; experiment: Cytokine levels (ELISA) in plasma and peritoneal lavage fluid after CLP; assay type: in vivo, mouse
Protocol: The effect of pharmacological inactivation of A2A receptors in mice subjected to CLP was evaluated using CD-1 mice in a similar fashion to that described for the A2A receptor KO or WT mice. In this set of experiments, the mice were injected immediately before or 2 hours after the operation and every 12 hours thereafter with 4-(2-[7-amino-2-(2-furyl[1,2,4]-triazolo[2,3-a[1,3,5]triazin-5-yl-aminoethyl)phenol (“ZM241385”) (15 mg/kg, s.c.) or its vehicle (DMSO). Blood samples were obtained aseptically by cardiac puncture using heparinized syringes after opening the chest and placed on ice into heparinized Eppendorf tubes until further processing for hematological and bacteriological analysis. Aliquots of whole blood were analyzed for hematology by flow cytometry (CELL-DYN 3200 System, Abbott Laboratories) in a centralized facility. After serial dilutions for bacteriological analysis were made (see below), the blood was centrifuged at 2000×g for ten minutes and the recovered plasma stored at −70° C. until further use. For peritoneal lavage, the abdominal skin was cleansed with 70% ethanol and the abdominal wall exposed by opening the skin. Four milliliters of sterile physiological saline was then installed into the peritoneal cavity via an 18-gauge needle. The abdomen was massaged gently for 1 minute while keeping the tip of the needle in the peritoneum, after which procedure peritoneal fluid was recovered through the needle. Recovered peritoneal lavage fluid was placed on ice until processed for bacteriological examination. After serially diluting the peritoneal lavage fluid to determine CFU numbers (see below), the peritoneal lavage fluid was centrifuged at 5000×g for ten minutes and the supernatant stored at −70° C. until further analysis. Samples from spleen, thymus, lung, kidneys, and liver were excised and either immediately frozen in liquid nitrogen or placed in 10% paraformaldehyde for subsequent histological analysis. Snap-frozen tissue samples were transferred to a −70° C. refrigerator until analyzed for gene expression and apoptotic markers. Concentrations of IL-10, IL-6, IL-12 p70, TNF-α and MIP-2, in plasma or peritoneal lavage fluid were determined using commercially available ELISA kits (R&D Systems) and according to the manufacturer's instructions. The lower detection limit for all these cytokines was 10 pg/ml. Plasma concentrations of AST, ALT, and BUN were analyzed using standard laboratory procedures. Survival curves were analyzed using the two-tailed Fisher's exact test. Two-tailed t testing was used to compare cytokine concentrations, CFUs, and other laboratory parameters. Statistical significance was assigned to p values smaller than 0.05.

[3] = 15 mg/kg s.c. twice daily, 16 hours after CLP, FIG. 6C
[4] = 15 mg/kg s.c. twice daily, 16 hours after CLP, FIG. 6D
[5] = 15 mg/kg s.c. twice daily, 16 hours after CLP, FIG. 6E
[6] = mouse CLP sepsis model, FIG. 10, matrix not stated

Nc1nc(NCCc2ccc(O)cc2)nc2nc(-c3ccco3)nn12 [ZM241385]
survival after CLP vs vehicle-treated mice, delayed administration ([1]; 15 mg/kg s.c. twice daily starting 2 hours after resuscitation, survival monitored 5 days, FIG. 6B, 15 mg/kg): still protective; also recorded: protects mice from death | survival after CLP vs vehicle-treated mice ([1]; 15 mg/kg s.c. twice daily starting at time of resuscitation (time 0), survival monitored 5 days, FIG. 6A, 15 mg/kg): significantly improved survival; also recorded: protects mice from death | survival after CLP ([1]; survival recorded for 2 days, FIG. 9): improved survival | IL-10 level in peritoneal lavage fluid vs vehicle-treated mice [2, 3]: decreased | IL-10 level in plasma vs vehicle-treated mice [2, 3]: decreased | IL-6 concentration in plasma vs vehicle-treated mice [2, 4]: comparable | IL-6 level in peritoneal fluid vs vehicle-treated mice [2, 4]: lower; also recorded: attenuated | MIP-2 level in peritoneal lavage fluid vs vehicle-treated mice [2, 5]: decreased | MIP-2 level in plasma vs vehicle-treated mice [2, 5]: decreased | IL-10 levels vs vehicle treated mice [2, 6]: Decreased levels | IL-12 concentrations vs vehicle treated mice [2, 6]: comparable | MIP-2 levels vs vehicle treated mice [2, 6]: Decreased levels
